Values of other authors as cited in patent publication US20090016973A1, “Composition and Method for the Prevention of Oral Disease” (MICROPURE, INC., priority 2007, published 2009).

What was measured:
protein synthesis [1] = conditions: Benarde et al., 1967
Escherichia coli = conditions: Berg et al., 1986; leading to cell death
dehydrogenase enzymes = conditions: within the first 5 seconds of reaction; Roller et al., 1986
protein synthesis [2] = conditions: Roller et al., 1986

[O][Cl+][O-] [chlorine dioxide]
effect on protein synthesis (protein synthesis [1]): abrupt inhibition
permeability control of the membrane (Escherichia coli): impaired
inhibition of total dehydrogenase enzymes (dehydrogenase enzymes): inhibited completely
inhibition of protein synthesis (protein synthesis [2]): partially inhibited
